# Reference: article PMC4513639 (Molecular pharmacology, 2014)
# Changes are numbered by the printed parent chain. Read-outs that look alike come from different tables or passages of the source.
# Key:
# [1] = tested on: A1-receptor-Y^288A; assay type: cell-based, human; conditions: for receptor upregulation with only one of the inhibitors (immunoblot): sole inhibitor, 2 μM EHNA or 10 μM dipyridamole; for role of blockage of adenosine efflux in receptor upregulation: added to EHNA and 5-iodotubercidin
# [2] = molecular target: adenosine deaminase; conditions: ref Ingolia et al., 1985; cited from earlier work
# [3] = molecular target: T1, A1 receptor (Homo sapiens, UniProt P30542); assay: Binding of the inhibitors to the A1 receptor; conditions: nanomolar to micromolar range
# T1 sequence (P30542 1-326): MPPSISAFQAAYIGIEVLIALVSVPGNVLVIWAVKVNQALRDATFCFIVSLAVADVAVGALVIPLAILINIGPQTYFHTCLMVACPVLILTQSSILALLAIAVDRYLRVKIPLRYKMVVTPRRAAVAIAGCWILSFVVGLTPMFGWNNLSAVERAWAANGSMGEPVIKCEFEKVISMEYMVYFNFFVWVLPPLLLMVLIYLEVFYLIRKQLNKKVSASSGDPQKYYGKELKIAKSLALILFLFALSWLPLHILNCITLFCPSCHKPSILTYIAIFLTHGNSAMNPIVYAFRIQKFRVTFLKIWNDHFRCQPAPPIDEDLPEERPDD
# [4] = molecular target: T2, A1-receptor-Y^288A (Homo sapiens, UniProt P30542, Y288A); assay type: binding; conditions: membranes of untreated cells
# T2 sequence (P30542 1-326 Y288A): T1 sequence (P30542 1-326) with Y288A
# [5] = tested on: A1-receptor-Y^288A; assay type: cell-based, human; conditions: 24 hours; 1 μM DPCPX or inhibitor combination
# [6] = tested on: A1-receptor-Y^288A; assay: Confocal microscopy of YFP-tagged A1-receptor-Y288A distribution; assay type: cell-based, human; conditions: 1 μM DPCPX or combination of inhibitors
# [7] = tested on: A1-receptor-Y^288A; assay type: cell-based, human; conditions: SF-TAP-tagged receptor, 24 hours treatment, 15 nM [3H]DPCPX
# [8] = molecular target: T3, wild-type A1 receptor (Homo sapiens, UniProt P30542); assay type: binding; conditions: SF-TAP-tagged receptor
# T3 sequence (P30542 1-326): T1 sequence (P30542 1-326)
# [9] = molecular target: human ENT2; conditions: read-out: affinity; ref Ward et al., 2000; cited from earlier work
# [10] = molecular target: human ENT1; conditions: read-out: affinity; ref Ward et al., 2000; cited from earlier work
# [11] = 24 hours, 0.5 μM iodotubercidin
smiles,measurement,setting,value
"CCCCCC[C@@H]([C@@H](C)O)n1cnc2c(N)ncnc21 (racemic) [EHNA, Erythro-9-(2-hydroxy-3-nonyl)adenine]",receptor upregulation with only one of the inhibitors (immunoblot),[1]; [11],not present
same,Ki,[2],33 nM
same,binding to the A1 receptor,[3],"neither EHNA nor 5-iodotubercidin nor dipyridamole per se, nor their combination, used in the experiments bound to the A1 receptor"
Nc1ncnc2c1c(I)cn2[C@@H]1O[C@H](CO)[C@@H](O)[C@H]1O [5-iodotubercidin],receptor upregulation with only one of the inhibitors (immunoblot),[1]; [11],not present
same,binding to the A1 receptor,[3],"neither EHNA nor 5-iodotubercidin nor dipyridamole per se, nor their combination, used in the experiments bound to the A1 receptor"
"CCCn1c(=O)c2[nH]c(C3CCCC3)nc2n(CCC)c1=O [DPCPX, 8-cyclopentyl-1,3-dipropylxanthine]",Bmax,[4],486.3 ± 80.0 fmol/mg
same,YFP fluorescence (flow cytometry),[5],substantial accumulation of YFP fluorescence
same,fate of receptor after cycloheximide block (mature glycosylated forms),"[1]; 4 hours preincubation, then cycloheximide 50 μg/ml for 2 or 4 hours",concomitant increase in the mature glycosylated forms of the receptor
same,level of receptor protein (immunoblot),"[1]; HEK293 stably expressing A1-receptor-Y288A-YFP, 24 hours, 1 μM DPCPX, 2 μM EHNA, 0.5 μM iodotubercidin, 10 μM dipyridamole",elevated levels of the receptor protein
same,time of maximum chaperoning effect,"[1]; incubation 1, 2, 4, 8 or 24 hours",24 h
same,distribution of receptor fluorescence (confocal),[6],the fluorescence was visualized on the cell surface
same,binding of [3H]DPCPX by the receptors accumulated after treatment,[7],did bind the radioligand
same,Bmax,"[8]; hypoxic cells (5% O2, 24 hours)",15.0 ± 0.8 pmol/mg
same,Bmax,[8]; normoxic cells,12.2 ± 0.3 pmol/mg
"O=[N+]([O-])c1ccc(CSc2ncnc3c2ncn3[C@@H]2O[C@H](CO)[C@@H](O)[C@H]2O)cc1 [NBMPR, S-(4-nitrobenzyl)-6-thioinosine]",role of blockage of adenosine efflux in receptor upregulation,[1]; 24 hours,indispensable for receptor upregulation
OCCN(CCO)c1nc(N2CCCCC2)c2nc(N(CCO)CCO)nc(N3CCCCC3)c2n1 [dipyridamole],Ki,[9],~350 nM
same,Ki,[10],~5 nM
same,role of blockage of adenosine efflux in receptor upregulation,[1]; 24 hours,indispensable for receptor upregulation
same,receptor upregulation with only one of the inhibitors (immunoblot),[1]; [11],not present
same,binding to the A1 receptor,[3],"neither EHNA nor 5-iodotubercidin nor dipyridamole per se, nor their combination, used in the experiments bound to the A1 receptor"
O=C1N[C@@H]2[C@@H](O)[C@@H](O)[C@H](O)[C@@H](CO)N2C1=O [kifunensine],binding of [3H]DPCPX by the receptors accumulated after treatment,[7],failed to bind the antagonist radioligand [^3H]DPCPX
